Patent publication US4857507A, “Angiotensinogen analogs” (Abbott Laboratories, priority 1987, dated 1989)

target: T1, human renal renin (Homo sapiens, UniProt P00797); experiment: inhibition of human renal renin in vitro, angiotensin I formed measured by radioimmunoassay; assay type: biochemical; conditions: compound at 10^-5 M; human renin substrate (angiotensinogen), 37° C., pH 6.0
T1 construct: human renal renin, free from acid proteolytic activity; from tissue; host or cells: human kidney (from the word 'renal')
T1 sequence (P00797 67-406): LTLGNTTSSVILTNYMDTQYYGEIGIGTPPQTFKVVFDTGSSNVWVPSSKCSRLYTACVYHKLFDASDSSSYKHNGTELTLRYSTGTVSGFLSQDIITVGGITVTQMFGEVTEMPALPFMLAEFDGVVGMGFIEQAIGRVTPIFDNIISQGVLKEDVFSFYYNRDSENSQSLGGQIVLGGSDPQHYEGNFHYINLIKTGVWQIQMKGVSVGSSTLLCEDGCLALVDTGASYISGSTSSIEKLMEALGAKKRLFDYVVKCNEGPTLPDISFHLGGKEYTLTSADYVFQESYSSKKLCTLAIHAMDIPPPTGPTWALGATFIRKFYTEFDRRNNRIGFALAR
Experimental: At the end of the incubation, the amount of angiotensin I formed is measured by radioimmunoassay and the molor concentration required to cause 50% inhibition, expressed as the IC50, is calculated.

`CC(C)CCC(=O)NC(CC(O)C(CC(C)C)NC(=O)[C@H](C)NC(=O)[C@H](Cc1ccccc1)NC(=O)OC(C)(C)C)c1ccccc1` (stereo partly drawn) [Example 42, Boc-Phe-Ala amide of 4-amino-3-hydroxy-6-methyl-1-(4-methylvaleryl)amino-1-phenylheptane] was tested, and the “% inhibition at 10^-5 M” value was 41%.

same assay, conditions: human renal renin with human renin substrate (angiotensinogen), 37° C., pH 6.0

Point of comparison: `CC(C)CCC(=O)NCC(F)(F)C(=O)[C@H](CC1CCCCC1)NC(=O)[C@H](CC(C)C)NC(=O)[C@H](Cc1ccccc1)NC(=O)OC(C)(C)C` [Example 94, Boc-Phe-Leu amide of (4S)-3-oxo-4-amino-2,2-difluoro-1-isopentylcarbonylamino-5-cyclohexylpentane], IC50 2 nM. Against it:
- CC(C)CCC(=O)NCC[C@H](O)[C@H](CC1CCCCC1)NC(=O)C(Cc1cscn1)NC(=O)C(Cc1ccccc1)NC(=O)OC(C)(C)C (mixture of isomers) [Example 59, Boc-Phe-dl-4-thiazolylalanine Amide of (3S,4S)-1-(3-Methylbutylcarbonylamino)-3-hydroxy-4-amino-5-cyclohexylpentane] — 5-fold higher, 10 nM
- CC(C)CCC(=O)NCC[C@H](O)[C@H](CC1CCCCC1)NC(=O)C(Cc1ccncn1)NC(=O)[C@H](Cc1ccccc1)NC(=O)OC(C)(C)C (mixture of isomers) [Example 62, Boc-Phe-dl-4-pyrimidinylalanine Amide of (3S,4S)-1-(3-Methylbutylcarbonylamino)-3-hydroxy-4-amino-5-cyclohexylpentane] — 10-fold higher, 20 nM
- CC(C)C[C@H](NC(=O)C(C)NC(=O)C(Cc1ccccc1)NC(=O)OC(C)(C)C)[C@@H](O)CCSCCc1ccccc1 (stereo partly drawn) [Example 16, Boc-Phe-Ala amide of (3S,4S)-4-amino-3-hydroxy-6-methyl-1-phenethylmercaptoheptane] — 2000-fold higher, 4000 nM
- CC(C)CCSCC[C@H](O)[C@H](CC(C)C)NC(=O)[C@H](C)NC(=O)[C@H](Cc1ccccc1)NC(=O)OC(C)(C)C [Example 17, Boc-Phe-Ala amide of (3S,4S)-4-amino-3-hydroxy-1-isoamylmercapto-6-methylheptane] — 2800-fold higher, 5500 nM
- CC(C)C[C@H](NC(=O)[C@H](C)NC(=O)[C@H](Cc1ccccc1)NC(=O)OC(C)(C)C)[C@@H](O)CCS(=O)(=O)CCc1ccccc1 [Example 18, Boc-Phe-Ala amide of (3S,4S)-4-amino-3-hydroxy-6-methyl-1-phenethylsulfonylheptane] — 1000-fold higher, 2000 nM
- CC(C)CCS(=O)(=O)CC[C@H](O)[C@H](CC(C)C)NC(=O)[C@H](C)NC(=O)[C@H](Cc1ccccc1)NC(=O)OC(C)(C)C [Example 19, Boc-Phe-Ala amide of (3S,4S)-4-amino-3-hydroxy-1-isoamylsulfonyl-6-methylheptane] — 1200-fold higher, 2500 nM
- CC(C)C[C@H](NC(=O)C(C)NC(=O)C(Cc1ccccc1)NC(=O)OC(C)(C)C)[C@@H](O)CCOc1ccccc1 (stereo partly drawn) [Example 21, Boc-Phe-Ala amide of (3S,4S)-4-amino-3-hydroxy-6-methyl-1-phenoxyheptane] — 1000-fold higher, 2000 nM
- CC(C)C[C@H](NC(=O)C(Cc1cnc[nH]1)NC(=O)C(Cc1ccccc1)NC(=O)OC(C)(C)C)[C@@H](O)CCS(=O)(=O)CCc1ccccc1 (stereo partly drawn) [Example 23, Boc-Phe-His amide of (3S,4S)-4-amino-3-hydroxy-6-methyl-1-phenethylsulfonylheptane] — 40-fold higher, 80 nM
- CC(C)CCC(=O)CC[C@H](O)[C@H](CC(C)C)NC(=O)[C@H](C)NC(=O)[C@H](Cc1ccccc1)NC(=O)OC(C)(C)C [Example 30, Boc-Phe-Ala amide of (4S,5S)-4-amino-2,11-dimethyl-5-hydroxy-8-oxododecane] — 1200-fold higher, 2500 nM
- CC(C)CCC(=O)NCC[C@H](O)[C@H](CC1CCCCC1)NC(=O)C(C)NC(=O)C(Cc1ccccc1)NC(=O)OC(C)(C)C (stereo partly drawn) [Example 34, Boc-Phe-Ala Amide of (3S,4S)-1-(3-Methylbutylcarbonylamino)-3-hydroxy-4-amino-5-cyclohexylpentane] — 15-fold higher, 30 nM
- CC(C)CCC(=O)NCC[C@H](O)[C@H](CC1CCCCC1)NC(=O)[C@H](Cc1cnc[nH]1)NC(=O)[C@H](Cc1ccccc1)NC(=O)OC(C)(C)C [Example 35, Boc-Phe-His Amide of (3S,4S)-1-(3-Methylbutylcarbonylamino)-3-hydroxy-4-amino-5-cyclohexylpentane] — 7.5-fold higher, 15 nM
- CC(C)CCNC(=O)C(CC(O)C(CC(C)C)NC(=O)C(C)NC(=O)C(Cc1ccccc1)NC(=O)OC(C)(C)C)c1ccccc1 (stereo not drawn) [Example 46, Boc-Phe-Ala amide of 5-amino-4-hydroxy-77-methyl-2-phenyloctanoic acid isoamyl amide] — 1500-fold higher, 3000 nM
- CC(C)S(=O)(=O)NCC[C@H](O)[C@H](CC1CCCCC1)NC(=O)C(Cc1cnc[nH]1)NC(=O)C(Cc1ccccc1)NC(=O)OC(C)(C)C (stereo partly drawn) [Example 50, Boc-Phe-His Amide of (3S,4S)-1-(2-propylsulfonylamino)-3-hydroxy-4-amino-5-cyclohexylpentane] — 12-fold higher, 25 nM
- CCCSCC(=O)NCC[C@H](O)[C@H](CC1CCCCC1)NC(=O)C(Cc1cnc[nH]1)NC(=O)C(Cc1ccccc1)NC(=O)OC(C)(C)C (stereo partly drawn) [Example 67, Boc-Phe-His Amide of (3S,4S)-1-(2-Propylmercaptoacetylamino)-3-hydroxy-4-amino-5-cyclohexylpentane] — 12-fold higher, 25 nM
- CCCS(=O)(=O)CC(=O)NCC[C@H](O)[C@H](CC1CCCCC1)NC(=O)[C@H](Cc1cnc[nH]1)NC(=O)[C@H](Cc1ccccc1)NC(=O)OC(C)(C)C [Example 68, Boc-Phe-His Amide of (3S,4S)-1-(2-Propylsulfonylacetylamino)-3-hydroxy-4-amino-5-cyclohexylpentane] — 10-fold higher, 20 nM
- CC(C)C[C@H](NC(=O)[C@H](Cc1ccccc1)NC(=O)OC(C)(C)C)C(=O)N[C@@H](CC1CCCCC1)[C@@H](O)C(F)(F)CN=[N+]=[N-] [Example 78, Boc-Phe-Leu amide of (3R,4S)-3-hydroxy-4-amino-2,2-difluoro-1-azido-5-cyclohexylpentane] — 15-fold higher, 30 nM
- CC(C)C[C@H](NC(=O)[C@H](Cc1ccccc1)NC(=O)OC(C)(C)C)C(=O)N[C@@H](CC1CCCCC1)[C@@H](O)C(F)(F)CSC(C)C [Example 83(A), Boc-Phe-Leu amide of (3R,4S)-3-hydroxy-4-amino-2,2-difluoro-1-isopropylmercapto-5-cyclohexylpentane] — 12-fold higher, 25 nM
- CC(C)CC(NC(=O)C(Cc1ccccc1)NC(=O)OC(C)(C)C)C(=O)N[C@@H](CC1CCCCC1)[C@@H](O)C(F)=CSC(C)C (stereo partly drawn) [Example 83(B), Boc-Phe-Leu amide of (3R,4S,EZ)-3-hydroxy-4-amino-2-fluoro-1-isopropylmercapto-5-cyclohexyl-1-pentene] — 25-fold higher, 50 nM
- CC(C)CCC(=O)NCC(F)(F)[C@H](O)[C@H](CC1CCCCC1)NC(=O)C(CC(C)C)NC(=O)C(Cc1ccccc1)NC(=O)OC(C)(C)C (stereo partly drawn) [Example 85, Boc-Phe-Leu amide of (3R,4S)-3-hydroxy-4-amino-2,2-difluoro-1-isopentylcarbonylamino-5-cyclohexylpentane] — 10-fold higher, 20 nM
- CC(C)CC(NC(=O)C(Cc1ccccc1)NC(=O)OC(C)(C)C)C(=O)N[C@@H](CC1CCCCC1)[C@@H](O)C(F)(F)CS(=O)(=O)C(C)C (stereo partly drawn) [Example 86, Boc-Phe-Leu amide of (3R,4S)-3-hydroxy-4-amino-2,2-difluoro-1-isopropylsulfonyl-5-cyclohexylpentane] — 5-fold higher, 10 nM
- CC(C)CC(NC(=O)C(Cc1ccccc1)NC(=O)OC(C)(C)C)C(=O)N[C@@H](CC1CCCCC1)[C@@H](O)C(F)=CS(=O)(=O)C(C)C (stereo partly drawn) [Example 87, Boc-Phe-Leu amide of (3R,4S,EZ)-3-hydroxy-4-amino-2-fluoro-1-isopropyl-sulfonyl-5-cyclohexyl-1- pentene] — 2.2-fold higher, 4.5 nM
- CC(C)C[C@H](NC(=O)[C@H](Cc1ccccc1)NC(=O)OC(C)(C)C)C(=O)N[C@@H](CC1CCCCC1)C(=O)C(F)(F)CN=[N+]=[N-] [Example 88, Boc-Phe-Leu amide of (4S)-3-oxo-4-amino-2,2-difluoro-1-azido-5-cyclohexylpentane] — within 1.5-fold, 2.5 nM
- CC(C)CC(NC(=O)C(Cc1ccccc1)NC(=O)OC(C)(C)C)C(=O)N[C@@H](CC1CCCCC1)C(=O)C(F)(F)CSC(C)C (stereo partly drawn) [Example 93, Boc-Phe-Leu amide of (4S)-3-oxo-4-amino-2,2-difluoro-1-isopropylmercapto-5-cyclohexylpentane] — within 1.5-fold, 2.5 nM
- CC(C)CC(NC(=O)C(Cc1ccccc1)NC(=O)OC(C)(C)C)C(=O)N[C@@H](CC1CCCCC1)C(=O)C(F)(F)CS(=O)(=O)C(C)C (stereo partly drawn) [Example 95, Boc-Phe-Leu amide of (4S)-3-oxo-4-amino-2,2-difluoro-1-isopropylsulfonyl-5-cyclohexylpentane] — 2-fold lower, 1 nM
- CC(C)C[C@H](NC(=O)[C@H](Cc1ccccc1)NC(=O)OC(C)(C)C)C(=O)N[C@@H](CC1CCCCC1)C(=O)/C(F)=C/S(=O)(=O)C(C)C [Example 96, Boc-Phe-Leu amide of (Z,4S)-3-oxo-4-amino-2-fluoro-1-isopropylsulfonyl-5-cyclohexyl-1-pentene] — 10-fold higher, 20 nM
- CC(C)(C)OC(=O)NC(Cc1ccccc1)C(=O)NC(Cc1cnc[nH]1)C(=O)N[C@@H](CC1CCCCC1)[C@@H](O)CCN=[N+]=[N-] (stereo partly drawn) [Example 125, Boc-Phe-His Amide of (3S,4S)-1-Azido-3-hydroxy-4-amino-5-cyclohexylpentane] — 10-fold higher, 20 nM
- Boc-Phe-3-methyl-His Amide of (3S,4S)-1-(3-Methylbutylcarbonylamino)-3-hydroxy-4-amino-5-cyclohexylpentane [Example 52] — 7.5-fold higher, 15 nM
- Boc-Phe-His amide of (3S,4S)-4-amino-3-hydroxy-11-isoamylsulfonyl-6-methylheptane [Example 22] — 50-fold higher, 100 nM
